In ChEMBL document CHEMBL5344441, “Discovery and Preclinical Pharmacology of NX-2127, an Orally Bioavailable Degrader of Bruton's Tyrosine Kinase with Immunomodulatory Activity for the Treatment of Patients with B Cell Malignancies” (J Med Chem, 2024):
Values after ≈ are worked out from the molar mass of the structure shown. Active and inactive are the calls of the source. No cut-off for these calls is given here.

What was measured:
[1] = target: T1, Protein cereblon/Tyrosine-protein kinase BTK (Homo sapiens, UniProt Q06187+Q96SW2); assay: PROTAC activity at CRBN/BTK in human Ramos cells assessed as degradation of BTK protein incubated for 4 hrs by HTRF assay; assay type: cell-based
Target sequence in this assay (Q06187 whole entry): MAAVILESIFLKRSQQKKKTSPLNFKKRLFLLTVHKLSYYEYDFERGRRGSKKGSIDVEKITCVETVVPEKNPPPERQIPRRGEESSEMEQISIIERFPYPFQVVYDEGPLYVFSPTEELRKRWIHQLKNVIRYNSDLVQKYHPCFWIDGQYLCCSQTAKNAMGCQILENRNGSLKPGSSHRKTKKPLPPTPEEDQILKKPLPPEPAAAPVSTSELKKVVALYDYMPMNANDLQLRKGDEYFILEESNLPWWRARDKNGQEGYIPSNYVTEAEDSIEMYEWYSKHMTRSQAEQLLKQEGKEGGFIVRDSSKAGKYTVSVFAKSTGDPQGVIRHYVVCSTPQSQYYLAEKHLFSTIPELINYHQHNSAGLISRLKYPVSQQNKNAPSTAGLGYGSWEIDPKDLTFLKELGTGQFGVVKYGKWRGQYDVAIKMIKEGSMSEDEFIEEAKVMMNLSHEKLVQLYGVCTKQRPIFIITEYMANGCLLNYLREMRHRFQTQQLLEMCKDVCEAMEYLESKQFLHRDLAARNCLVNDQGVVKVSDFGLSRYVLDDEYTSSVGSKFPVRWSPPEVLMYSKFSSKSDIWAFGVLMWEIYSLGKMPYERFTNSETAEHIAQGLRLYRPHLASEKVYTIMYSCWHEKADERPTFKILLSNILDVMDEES
Target sequence in this assay (Q96SW2 whole entry): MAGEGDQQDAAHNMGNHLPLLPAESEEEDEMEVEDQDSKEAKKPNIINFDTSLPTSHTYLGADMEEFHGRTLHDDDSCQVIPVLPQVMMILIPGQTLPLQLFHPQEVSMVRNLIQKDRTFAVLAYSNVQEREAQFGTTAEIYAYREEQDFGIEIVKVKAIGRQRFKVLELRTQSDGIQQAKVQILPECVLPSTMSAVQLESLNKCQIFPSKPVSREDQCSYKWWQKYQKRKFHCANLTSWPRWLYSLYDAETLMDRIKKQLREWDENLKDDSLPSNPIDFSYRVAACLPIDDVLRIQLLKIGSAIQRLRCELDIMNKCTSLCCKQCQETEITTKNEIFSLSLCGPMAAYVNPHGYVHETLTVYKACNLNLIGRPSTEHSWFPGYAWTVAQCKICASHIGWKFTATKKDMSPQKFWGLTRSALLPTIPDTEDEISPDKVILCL

[2] = target: T1, Protein cereblon/Tyrosine-protein kinase BTK; assay: PROTAC activity at CRBN/BTK in human Ramos cells assessed as maximal degradation of BTK protein incubated for 4 hrs by HTRF assay relative to control; assay type: cell-based
Target sequence in this assay (Q06187 2-659 limits assumed): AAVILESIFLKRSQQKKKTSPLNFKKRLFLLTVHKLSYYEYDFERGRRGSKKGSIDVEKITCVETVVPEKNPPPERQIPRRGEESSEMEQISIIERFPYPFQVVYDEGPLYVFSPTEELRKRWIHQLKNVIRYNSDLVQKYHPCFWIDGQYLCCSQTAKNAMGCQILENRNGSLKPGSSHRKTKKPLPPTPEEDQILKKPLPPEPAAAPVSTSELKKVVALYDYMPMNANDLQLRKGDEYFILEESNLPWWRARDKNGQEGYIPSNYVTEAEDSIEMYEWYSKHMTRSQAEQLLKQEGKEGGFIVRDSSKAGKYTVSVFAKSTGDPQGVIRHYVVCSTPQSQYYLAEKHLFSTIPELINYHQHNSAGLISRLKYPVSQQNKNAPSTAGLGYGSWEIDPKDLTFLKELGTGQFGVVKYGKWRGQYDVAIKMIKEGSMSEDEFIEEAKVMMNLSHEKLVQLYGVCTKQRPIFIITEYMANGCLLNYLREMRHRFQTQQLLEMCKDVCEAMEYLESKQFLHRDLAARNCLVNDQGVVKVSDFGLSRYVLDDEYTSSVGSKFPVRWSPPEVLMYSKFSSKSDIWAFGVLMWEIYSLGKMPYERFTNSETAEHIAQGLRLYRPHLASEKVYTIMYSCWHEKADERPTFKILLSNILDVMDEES
Target sequence in this assay (Q96SW2 whole entry partner): as the sequence (Q96SW2 whole entry) above

[3] = target: T1, Protein cereblon/Tyrosine-protein kinase BTK; assay: PROTAC activity at CRBN/BTK in human TMD8 cells assessed as degradation of BTK protein incubated for 4 hrs by HTRF assay; assay type: cell-based
Target sequence in this assay (Q06187 whole entry): as the sequence (Q06187 whole entry) above
Target sequence in this assay (Q96SW2 whole entry): as the sequence (Q96SW2 whole entry) above

[4] = target: T1, Protein cereblon/Tyrosine-protein kinase BTK; assay: PROTAC activity at CRBN/BTK in human TMD8 cells assessed as maximal degradation of BTK protein incubated for 4 hrs by HTRF assay relative to control; assay type: cell-based
Target sequence in this assay (Q06187 2-659 limits assumed): as the sequence (Q06187 2-659 limits assumed) above
Target sequence in this assay (Q96SW2 whole entry partner): as the sequence (Q96SW2 whole entry) above

[5] = target: T2, Protein cereblon/Tyrosine-protein kinase BTK (Mus musculus) (UniProt P35991+Q8C7D2); assay: In vivo protac activity at CRBN/BTK in BALB/c mouse assessed as remaining BTK protein in splenocyte at 3 mg/kg,po administration measured after 6 hrs by HTRF assay relative to control; assay type: functional, organism-based
[6] = target: T3, Protein cereblon/Zinc finger protein Aiolos (Homo sapiens, UniProt Q96SW2+Q9UKT9); assay: PROTAC activity at CRBN/IKZF3 in human T cell assessed as degradation of IKZF3 protein incubated for 24 hrs by flow cytometry; assay type: cell-based
Target sequence in this assay (Q96SW2 whole entry): as above
Target sequence in this assay (Q9UKT9 whole entry): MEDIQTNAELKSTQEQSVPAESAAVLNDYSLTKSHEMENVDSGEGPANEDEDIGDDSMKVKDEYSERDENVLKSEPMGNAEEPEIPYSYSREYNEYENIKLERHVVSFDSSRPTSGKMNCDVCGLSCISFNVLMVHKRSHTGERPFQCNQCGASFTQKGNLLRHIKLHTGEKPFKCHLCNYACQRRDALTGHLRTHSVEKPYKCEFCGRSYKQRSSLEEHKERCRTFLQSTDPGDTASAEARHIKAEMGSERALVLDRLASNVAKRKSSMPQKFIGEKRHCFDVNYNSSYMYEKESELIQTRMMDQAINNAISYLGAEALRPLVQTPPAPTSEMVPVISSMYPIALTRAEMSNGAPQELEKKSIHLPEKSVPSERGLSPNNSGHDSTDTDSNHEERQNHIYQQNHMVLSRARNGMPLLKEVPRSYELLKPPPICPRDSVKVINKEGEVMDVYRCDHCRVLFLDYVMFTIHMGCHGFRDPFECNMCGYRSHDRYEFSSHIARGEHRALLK

[7] = target: T3, Protein cereblon/Zinc finger protein Aiolos; assay: PROTAC activity at CRBN/IKZF3 in human T cell assessed as maximal degradation of IKZF3 protein incubated for 24 hrs by flow cytometry relative to control; assay type: cell-based
Target sequence in this assay (Q96SW2 whole entry, looked up): as the sequence (Q96SW2 whole entry) above
Target sequence in this assay (Q9UKT9 whole entry, looked up): as the sequence (Q9UKT9 whole entry) above

[8] = target: T2, Protein cereblon/Tyrosine-protein kinase BTK (Mus musculus); assay: In vivo protac activity at CRBN/BTK in BALB/c mouse assessed as remaining BTK protein in blood at 3 mg/kg,po administration measured after 6 hrs by flow cytomtery relative to control; assay type: functional, organism-based
TMD8 [9] = assay: Antitumor activity against human TMD8 cells expressing wild type BTK xenografted in CB17-SCID mouse assessed as tumor growth inhibition at 30 mg/kg,po administration for 25 days; assay type: functional; settings: TMD8, 600 h, time 25 day, read-out: TGI
TMD8 [10] = assay: Antitumor activity against human TMD8 cells expressing BTK C481S mutant xenografted in CB17-SCID mouse assessed as tumor growth inhibition at 30 mg/kg,po administration for 25 days; assay type: functional; settings: time 25.0 day
[11] = Lipophilicity, logD of compound at pH 7.4; assay type: physicochemical; settings: buffer
[12] = target: Protein cereblon/Tyrosine-protein kinase BTK (Homo sapiens, UniProt Q06187+Q96SW2, C481S); assay: PROTAC activity at CRBN/BTK C481S mutant in human TMD8 cells assessed as degradation of BTK protein incubated for 4 hrs by HTRF assay; assay type: cell-based
Cereblon/Ikaros = Cereblon/Ikaros (Homo sapiens, UniProt Q96SW2+Q13422); assay: PROTAC activity at CRBN/IKZF1 in human T cell assessed as degradation of IKZF1 protein incubated for 24 hrs by flow cytometry; assay type: cell-based
[13] = Aqueous solubility of the compound in PBS at pH 7.4; assay type: physicochemical
[14] = Efflux ratio of apparent permeability in human Caco-2 cells; assay type: ADME, cell-based
[15] = Apparent permeability across apical to basolateral side in human Caco-2 cells; assay type: ADME, cell-based
[16] = Plasma protein binding in mouse; assay type: ADME, cell-free; settings: read-out: PPB
[17] = Plasma protein binding in rat; assay type: ADME, cell-free; settings: read-out: PPB
[18] = Plasma protein binding in dog; assay type: ADME, cell-free, Canis lupus familiaris; settings: read-out: PPB (converted)
[19] = Plasma protein binding in cynomolgus monkey; assay type: ADME, cell-free, Macaca fascicularis; settings: read-out: PPB (converted)
[20] = Plasma protein binding in human; assay type: ADME, cell-free; settings: read-out: PPB (converted)
[21] = Ratio of drug concentration in mouse blood to plasma; assay type: ADME, cell-free; settings: whole blood
[22] = Ratio of drug concentration in rat blood to plasma; assay type: ADME, cell-free; settings: whole blood
[23] = Ratio of drug concentration in dog blood to plasma; assay type: ADME, cell-free, Canis lupus familiaris; settings: whole blood
[24] = Ratio of drug concentration in cynomolgus monkey blood to plasma; assay type: ADME, cell-free, Macaca fascicularis; settings: whole blood
[25] = Ratio of drug concentration in human blood to plasma; assay type: ADME, cell-free; settings: whole blood
[26] = Observed clearance in mouse at 1 mg/kg,iv; assay type: ADME, organism-based; settings: in vivo
[27] = AUC in mouse at 10 mg/kg,po; assay type: ADME, organism-based; parameters: dose 10 mg/kg, route po; settings: in vivo
[28] = Oral bioavailability in mouse at 10 mg/kg; assay type: ADME, organism-based; settings: in vivo
[29] = test system: Protein cereblon/Tyrosine-protein kinase BTK (Homo sapiens), Q06187+Q96SW2 [C481S]; assay: PROTAC activity at CRBN/BTK C481S mutant in human TMD8 cells assessed as maximal degradation of BTK protein incubated for 4 hrs by HTRF assay relative to control; assay type: cell-based

T2 sequence (P35991 whole entry, looked up): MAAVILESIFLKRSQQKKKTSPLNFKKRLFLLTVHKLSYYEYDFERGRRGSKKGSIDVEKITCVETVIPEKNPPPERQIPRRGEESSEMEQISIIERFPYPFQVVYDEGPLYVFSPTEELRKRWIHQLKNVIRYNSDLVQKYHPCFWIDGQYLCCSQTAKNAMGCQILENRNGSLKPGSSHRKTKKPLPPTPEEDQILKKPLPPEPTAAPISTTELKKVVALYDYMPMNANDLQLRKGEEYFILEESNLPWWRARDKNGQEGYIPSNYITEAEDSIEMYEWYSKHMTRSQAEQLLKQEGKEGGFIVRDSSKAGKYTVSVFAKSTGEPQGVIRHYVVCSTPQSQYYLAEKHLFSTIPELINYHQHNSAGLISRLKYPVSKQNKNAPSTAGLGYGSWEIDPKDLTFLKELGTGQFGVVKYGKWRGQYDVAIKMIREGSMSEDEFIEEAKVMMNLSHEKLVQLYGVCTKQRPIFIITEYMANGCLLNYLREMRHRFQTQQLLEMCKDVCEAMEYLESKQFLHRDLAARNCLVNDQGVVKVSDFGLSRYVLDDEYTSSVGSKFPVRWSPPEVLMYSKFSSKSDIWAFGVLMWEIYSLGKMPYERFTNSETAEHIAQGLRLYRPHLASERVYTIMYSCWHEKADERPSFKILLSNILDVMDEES
T2 sequence (Q8C7D2 whole entry, looked up): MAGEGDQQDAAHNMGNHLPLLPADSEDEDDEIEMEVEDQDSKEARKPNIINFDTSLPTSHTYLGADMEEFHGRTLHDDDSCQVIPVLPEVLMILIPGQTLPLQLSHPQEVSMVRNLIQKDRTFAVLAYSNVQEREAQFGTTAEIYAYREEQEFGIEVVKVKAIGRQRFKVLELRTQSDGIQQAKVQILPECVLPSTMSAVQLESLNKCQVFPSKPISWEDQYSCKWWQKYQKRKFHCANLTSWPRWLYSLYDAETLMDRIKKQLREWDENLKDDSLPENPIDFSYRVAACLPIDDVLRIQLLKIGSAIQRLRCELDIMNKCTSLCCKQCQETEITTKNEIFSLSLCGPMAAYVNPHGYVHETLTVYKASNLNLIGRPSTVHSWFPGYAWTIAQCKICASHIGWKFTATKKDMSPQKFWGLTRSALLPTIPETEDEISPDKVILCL
Cereblon/Ikaros, sequence (Q96SW2 whole entry): as the sequence (Q96SW2 whole entry) above
Cereblon/Ikaros, sequence (Q13422 whole entry): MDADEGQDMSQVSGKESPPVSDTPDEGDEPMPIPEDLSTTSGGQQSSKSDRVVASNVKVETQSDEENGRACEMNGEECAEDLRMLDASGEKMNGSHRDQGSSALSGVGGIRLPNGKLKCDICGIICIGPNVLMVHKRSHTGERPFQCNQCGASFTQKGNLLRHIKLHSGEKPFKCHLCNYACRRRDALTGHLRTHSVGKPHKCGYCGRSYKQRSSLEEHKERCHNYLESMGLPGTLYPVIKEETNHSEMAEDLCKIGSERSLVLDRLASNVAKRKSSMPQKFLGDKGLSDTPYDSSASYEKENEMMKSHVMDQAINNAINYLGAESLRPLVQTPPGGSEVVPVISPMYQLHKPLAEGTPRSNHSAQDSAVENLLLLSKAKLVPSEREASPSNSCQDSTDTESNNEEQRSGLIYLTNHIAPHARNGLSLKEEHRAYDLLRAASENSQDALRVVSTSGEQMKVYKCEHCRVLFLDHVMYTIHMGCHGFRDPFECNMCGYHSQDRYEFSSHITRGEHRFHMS
Protein cereblon/Tyrosine-protein kinase BTK (Homo sapiens, UniProt Q06187+Q96SW2, C481S), sequence (Q06187 2-659 C481S limits assumed, stated change not applied): as the sequence (Q06187 2-659 limits assumed) above, with C480S counted along it
Protein cereblon/Tyrosine-protein kinase BTK (Homo sapiens, UniProt Q06187+Q96SW2, C481S), sequence (Q96SW2 whole entry, stated change not applied): as the sequence (Q96SW2 whole entry) above

`CN1CCN([C@@H]2CCCN(c3cnc(C(N)=O)c(Nc4ccc(N5CCC6(CC5)CCN(c5ccc7c(c5)C(=O)N(C5CCC(=O)NC5=O)C7=O)CC6)cc4)n3)C2)C1=O` (stereo partly specified) showed a DC50 [1] of 0.9 nM, an Emax [2] of 96% and a DC50 [3] of 1.3 nM. The Emax [4] was 96% and the Activity [5] was 18%.
Work on `CN1CCN([C@@H]2CCCN(c3cnc(C(N)=O)c(Nc4ccc(C5CCN(C[C@H]6CCN(c7ccc8c(c7)C(=O)N(C7CCC(=O)NC7=O)C8=O)C6)CC5)nc4)n3)C2)C1=O` (stereo partly specified) yielded a DC50 [3] of 1 nM, an Emax [4] of 96% and an Activity [5] of 46%.
With `CN1CCN([C@@H]2CCCN(c3cnc(C(N)=O)c(Nc4ccc(C5CCN(C6CN(c7ccc8c(c7)C(=O)N(C7CCC(=O)NC7=O)C8=O)C6)CC5)cc4)n3)C2)C1=O` (stereo partly specified) the DC50 [1] was 1.4 nM, the Emax [2] was 91% and the DC50 [3] was 1.2 nM. It also gave an Emax [4] of 96%, a DC50 [6] of 32 nM and an Emax [7] of 74%. For the same compound, the Activity [8] was 35%.
In the case of `C[C@H]1CN(C(=O)CCOCCCc2cccc3c2CN(C2CCC(=O)NC2=O)C3=O)CCN1c1ccc(Nc2cc(-c3ccnc(N4CCn5c(cc6c5CC(C)(C)C6)C4=O)c3CO)cn(C)c2=O)nc1` (stereo partly specified), the DC50 [1] is reported as 7.2 nM and the Emax [2] is reported as 88%.
In the case of `CN1CCN([C@@H]2CCCN(c3cnc(C(N)=O)c(Nc4ccc(N5CCC6(CC5)CN(c5cccc7c5C(=O)N(C5CCC(=O)NC5=O)C7=O)C6)cc4)n3)C2)C1=O` (stereo partly specified), the Emax [4] is reported as 50%.
In the case of `CN1CCN([C@@H]2CCCN(c3cnc(C(N)=O)c(Nc4ccc(C5CCN(CC6CCN(c7ccc8c(c7)C(=O)N(C7CCC(=O)NC7=O)C8=O)CC6)CC5)cc4)n3)C2)C1=O` (stereo partly specified), the DC50 [1] is reported as 0.75 nM, the Emax [2] is reported as 94% and the DC50 [6] is reported as 28 nM. It also gave an Emax [7] of 74%.
For `C=CC(=O)N1CCC[C@@H](n2nc(-c3ccc(Oc4ccccc4)cc3)c3c(N)ncnc32)C1` [IBRUTINIB], the inhibition in vivo at 30 mg/kg (TMD8 [9]) was 55% and the Activity (TMD8 [10]) was “inactive”.
With `CN1CCN([C@@H]2CCCN(c3cnc(C(N)=O)c(Nc4ccc(C5CCN(C[C@H]6CCN(c7ccc8c(c7)CN(C7CCC(=O)NC7=O)C8=O)C6)CC5)cc4)n3)C2)C1=O` (stereo partly specified) the DC50 [3] was 0.25 nM, the Emax [4] was 96% and the Activity [8] was 49%.
`CN1CCN([C@@H]2CCCN(c3cnc(C(N)=O)c(Nc4ccc(C5CCN(C[C@H]6CCN(c7ccc8c(c7)C(=O)N(C7CCC(=O)NC7=O)C8=O)C6)CC5)cc4)n3)C2)C1=O` (stereo partly specified) showed a DC50 [1] of 0.5 nM, an Emax [2] of 97% and a DC50 [3] of 0.35 nM. For the same compound, the Emax [4] was 97%, the Emax [7] was 79% and the Activity [5] was 32%. It also gave an Activity [8] of 50%, a logD [11] of 3.7 and a DC50 [12] of 1.5 nM. For the same compound, the DC50 (Cereblon/Ikaros) was 57 nM, the solubility [13] was 0.3 µM (≈ 0.245 µg/mL) and the efflux ratio [14] was > 84. The Papp A→B [15] was < 0.01 ×10⁻⁶ cm/s, the fraction unbound [16] was < 0.015 and the fraction unbound [17] was < 0.015. The fraction unbound [18] was 0.031, the fraction unbound [19] was 0.025 and the fraction unbound [20] was 0.066. It also gave a blood plasma ratio [21] of 1.1, a blood plasma ratio [22] of 1.3 and a blood plasma ratio [23] of 6. The blood plasma ratio [24] was 11, the blood plasma ratio [25] was 0.3 and the clearance [26] was 3 mL/min/kg. It also gave an AUC [27] of 3.6 µM·h, a bioavailability [28] of 5.4% and an Emax [29] of 94.8%.
Work on `CN1CCN([C@@H]2CCCN(c3cnc(C(N)=O)c(Nc4ccc(C5CCN(CC6CN(c7ccc8c(c7)C(=O)N(C7CCC(=O)NC7=O)C8=O)C6)CC5)cc4)n3)C2)C1=O` (stereo partly specified) yielded a DC50 [1] of 0.8 nM and an Emax [2] of 97%.
`Nc1ncnc2c1c(-c1ccc(Oc3ccccc3)cc1)nn2C1CCN(C(=O)CCOCCOCCOCCOCCOCCNc2cccc3c2C(=O)N(C2CCC(=O)NC2=O)C3=O)CC1` (stereo unspecified) gave a DC50 [1] of 32 nM and an Emax [2] of 88%.
In the case of `CN1CCN([C@@H]2CCCN(c3cnc(C(N)=O)c(Nc4ccc(C5CCN(C[C@@H]6CCN(c7ccc8c(c7)C(=O)N(C7CCC(=O)NC7=O)C8=O)C6)CC5)cc4)n3)C2)C1=O` (stereo partly specified), the DC50 [1] is reported as 1.2 nM and the Emax [2] is reported as 93%.
With `CN1CCN([C@@H]2CCCN(c3cnc(C(N)=O)c(Nc4ccc(C5(C)CCN(C[C@H]6CCN(c7ccc8c(c7)C(=O)N(C7CCC(=O)NC7=O)C8=O)C6)CC5)cc4)n3)C2)C1=O` (stereo partly specified) the DC50 [3] was 0.6 nM, the Emax [4] was 96% and the Activity [5] was 27%.
Compound `CN1CCN([C@@H]2CCCN(c3cnc(C(N)=O)c(Nc4ccc(N5CCC6(CCN(c7ccc8c(c7)C(=O)N(C7CCC(=O)NC7=O)C8=O)CC6)CC5)nc4)n3)C2)C1=O` (stereo partly specified) has a DC50 [3] of 4.3 nM, an Emax [4] of 94% and an Activity [8] of 96%.
